In patent US20190343874A1, “USE OF NICKEL COMPLEX IN PREPARING DRUG FOR RELIEVING INFLAMMATION” (NATIONAL TAIWAN NORMAL UNIVERSITY, priority 2018, published 2019):

Tests used:
[1] = system: bladder of adult female Wistar rats; assay: intravesical pressure measurement in para-phenylenediamine-treated rats; type: in vivo
Experimental: (§1) In the current embodiment, 24 adult female Wistar rats were adopted as the experimental animals in the animal experiments and were randomly divided into four groups to be treated with different intraperitoneal injections. Referring to Table 1, the four groups are as follows: 1) the control group: 1 mL/day saline solution for 4 weeks; 2) the first experimental group: PPD (60 […]) for 4 weeks; 3) the second group: PPD ([…]) for 4 weeks and a drug (1.5 mg/kg/day) prepared from WCT003 for the last 2 weeks of; 4) the third experimental group: PPD (60 μg/kg/day) for 4 weeks and a drug (1.5 mg/kg/day) prepared from WCT006 for the last 2 weeks.
Then, each group of the rats were anesthetized with urethane (1.2 g/kg) via percutaneously injection, and a catheter was placed in a left femoral artery of each of the rats to measure arterial pressure (ABP). Meanwhile, intravesical pressure of the rats were also measured to obtain the parameters such as bladder intercontraction interval (ICI), urination time (MT), maximum urination pressure (MVP), contraction amplitude (A=MVP-BP), urination pressure threshold (PT), etc., as shown in FIG. 3 to FIG. 5.

[2] = system: bladder tissue of adult female Wistar rats; assay: bladder tissue slices and perfusion unit after para-phenylenediamine; type: in vivo; conditions: PPD i.p. for 4 weeks vs control group
Experimental: as §1
It could be known from the experiment data that para-phenylenediamine induces inflammatory response and ischemia in the bladders of the rats in the first experimental group.

adult female Wistar rats = assay: metabolic cage sample data; type: in vivo
Experimental: as §1
Referring to Table 2, which lists the sample data collected from the rats of the control group and the first experimental group where were placed in the metabolic cage: […]

[3] = system: reactive oxygen species in the bladder cells; assay: reactive oxygen species count in the bladder (in vivo); set-up: species or system Wistar rats; conditions: PPD alone i.p. for 4 weeks, FIG. 9 and 10
Experimental: as §1
FIG. 10 show the analytical data of the reactive oxygen species count in vivo for each group of rats. It could be seen from FIG. 9 and FIG. 10 that the reactive oxygen species count in the bladder cells of the first experimental group of rats is much higher than that of the control group.

reactive oxygen species = assay: luminol and lucigenin chemiluminescence of blood or urine samples (in vitro); set-up: species or system Wistar rats; conditions: PPD i.p. for 4 weeks
Experimental: To determine the effect of the drug prepared from the nickel complex WCt003 and WCt006 on eliminating reactive oxygen species, a luminol and lucigenin chemiluminescence (CL) method was utilized. The method includes the following steps: 0.2 ml sample of blood or urine was mixed with 0.5 ml of 1 mmol/L lucigenin or 0.2 mmol/L luminol, and then the mixture was analyzed with a chemiluminescence analysis system, wherein, the recorded signals were corresponding to the hydrogen peroxide (H2O2) and hypochlorous acid (HOCl) count in the luminol method, while the recorded signals were corresponding to the superoxide anion (O2^−) count in the lucigenin method.

[4] = first experimental group: PPD alone i.p. for 4 weeks
[5] = first experimental group: PPD i.p. for 4 weeks

Nc1ccc(N)cc1 [para-phenylenediamine]
bladder intercontraction interval vs control group ([1]; PPD i.p., in words, Table 3 and FIG. 6): significantly shorter
A (contraction amplitude) [1, 4]: 20.3 ± 0.9 mmHg
ICI (bladder intercontraction interval) [1, 4]: 35.8 ± 6.0 s
MVP (maximum urination pressure) [1, 4]: 30.6 ± 0.9 mmHg
mast cell in the bladder ([2]; FIG. 1): significant increase
neutrophil infiltration in the bladder tissue ([2]; FIG. 1): have neutrophil infiltration in the bladder tissue
perfusion unit ([2]; FIG. 2): reduced
stool vs control group (adult female Wistar rats; PPD i.p. for 4 weeks, in words): more
urinary frequency vs control group (adult female Wistar rats; PPD i.p. for 4 weeks, in words): more frequent
urine vs control group (adult female Wistar rats; PPD i.p. for 4 weeks, in words): more
Body Weight (adult female Wistar rats; [5]): 277.8 ± 3.8 g
Food (adult female Wistar rats; [5]): 22.9 ± 4.4 g
Stool (adult female Wistar rats; [5]): 35.7 ± 8.1 g
Urinary frequency (24 hours) (adult female Wistar rats; [5]): 53.1 ± 13.3
Urine (adult female Wistar rats; [5]): 32.7 ± 7.5 mg
Water intake (adult female Wistar rats; [5]): 57.7 ± 7.2 mL
reactive oxygen species count in the bladder cells vs control group [3]: much higher
O2− count in the blood sample vs control group (reactive oxygen species; blood, lucigenin, FIG. 8): higher
H2O2 and HOCl counts in the blood sample vs control group (reactive oxygen species; blood, luminol, FIG. 8): significantly higher
reactive oxygen species count in urine samples vs control group (reactive oxygen species; urine, FIG. 7): no significant difference
